Experimental findings from patent publication US20220306647A1, “NOVEL INDOLE-2-CARBOXAMIDES ACTIVE AGAINST THE HEPATITUS B VIRUS (HBV)” (AICURIS GMBH & CO. KG, priority 2019, published 2022) are described below.

Like-named read-outs stand apart in the source and are kept apart here.

Assay [1] addresses T1, HBV core protein (C-terminal truncated core protein, 149 amino acids of the N-terminal assembly domain, BODIPY-FL labelled) (UniProt P03146).
T1 construct: fused on or other part: A single cysteine added after residue 149, at position 150; It carries the BODIPY-FL maleimide label
Nature of the assay: Biochemical capsid assembly assay (fluorescence quenching). In short, it runs like this: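 Fluorescence quenching of BODIPY-FL-labelled core dimers (1.0 to 2.0 μM) in 50 mM HEPES pH 7.5; compounds at 8 concentrations, 0.5 log-unit dilutions from top 100, 31.6 or 10 μM, 0.5% DMSO. Assembly started with NaCl to […]; fluorescence (ex 477/em 525 nm) read after 6 min. EC50 by non-linear regression.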

Another assay concerns HBV (HepAD38 cells). Nature of the assay: HBV replication assay: determination of HBV DNA from the supernatants of HepAD38 cells. The class given is cell-based. As to conditions: Hepatitis B virus, 144 h, HBV DNA in HepAD38 supernatant at day 6, qPCR, read-out: Cell activity. Put shortly: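 HepAD38 cells seeded without tetracycline and treated with half-log compound dilutions; tetracycline-treated wells serve as cell control. On day 6, supernatant HBV DNA was purified and quantified by real-time PCR against plasmid standards; EC50 from non-linear regression of relative copy numbers, three experiments in triplicate.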
A general note: Quantitative PCR measures a nucleic acid by following its amplification.

Setting [2] is: read-out: Assembly activity, assembly started with NaCl, fluorescence read after 6 min.
[3] abbreviates: assembly started with NaCl, fluorescence read after 6 min, read-out: Assembly activity.

T1 sequence (P03146 whole entry, the tested form may be a part): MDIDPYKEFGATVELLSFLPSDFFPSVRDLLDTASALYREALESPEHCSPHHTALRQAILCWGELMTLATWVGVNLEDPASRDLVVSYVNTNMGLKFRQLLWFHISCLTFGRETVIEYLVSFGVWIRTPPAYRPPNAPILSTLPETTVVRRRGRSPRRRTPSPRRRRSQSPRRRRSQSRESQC

For `CN(C(=O)c1cnn2c1CN(C(=O)c1cc3c(Cl)cc(Cl)cc3[nH]1)CC2)C1(c2ccc(C(=O)O)cc2)CC1` [Example 69, 4-{1-[N-methyl-5-(4,6-dichloro-1H-indole-2-carbonyl)-4H,5H,6H,7H-pyrazolo[1,5-a]pyrazine-3-amido]cyclopropyl}benzoic acid], the IC50 in assay [1] (setting [2]) was < 5 µM. The EC50 in the assay on HBV (HepAD38 cells) is < 1 µM.

Regarding `CCc1cc(F)cc2[nH]c(C(=O)N3CCn4ncc(C(=O)N(C)C5(c6ccc(C(=O)O)cc6)CC5)c4C3)cc12` [Example 74, 4-{1-[N-methyl-5-(4-ethyl-6-fluoro-1H-indole-2-carbonyl)-4H,5H,6H,7H-pyrazolo[1,5-a]pyrazine-3-amido]cyclopropyl}benzoic acid], the IC50 in assay [1] (setting [3]) was < 5 µM. For the same compound, the EC50 with HBV (HepAD38 cells) is < 1 µM.

As for `CN(C(=O)c1cnn2c1CN(C(=O)c1cc3c(F)cc(F)cc3[nH]1)CC2)C1(c2ccc(C(=O)O)cc2)CC1` [Example 75, 4-{1-[N-methyl-5-(4,6-difluoro-1H-indole-2-carbonyl)-4H,5H,6H,7H-pyrazolo[1,5-a]pyrazine-3-amido]cyclopropyl}benzoic acid], the IC50 in assay [1] (setting [3]) is < 5 µM. Moreover, in the assay with HBV (HepAD38 cells), the EC50 was < 1 µM.

Turning to `CN(C(=O)c1cnn2c1CN(C(=O)c1cc3c(F)ccc(F)c3[nH]1)CC2)C1(c2ccc(C(=O)O)cc2)CC1` [Example 76, 4-{1-[N-methyl-5-(4,7-difluoro-1H-indole-2-carbonyl)-4H,5H,6H,7H-pyrazolo[1,5-a]pyrazine-3-amido]cyclopropyl}benzoic acid], the IC50 in assay [1] (setting [3]) is < 5 µM. Also, the EC50 with HBV (HepAD38 cells) was < 1 µM.

Consider `CN(C(=O)c1cnn2c1CN(C(=O)c1cc3cc(F)c(F)cc3[nH]1)CC2)C1(c2ccc(C(=O)O)cc2)CC1` [Example 77, 4-{1-[N-methyl-5-(5,6-difluoro-1H-indole-2-carbonyl)-4H,5H,6H,7H-pyrazolo[1,5-a]pyrazine-3-amido]cyclopropyl}benzoic acid], for which the IC50 in assay [1] (setting [3]) was < 5 µM. The EC50 in the assay with HBV (HepAD38 cells) is < 1 µM.

With `CN(C(=O)c1cnn2c1CN(C(=O)c1cc3c(F)c(F)c(F)cc3[nH]1)CC2)C1(c2ccc(C(=O)O)cc2)CC1` [Example 78, 4-{1-[N-methyl-5-(4,5,6-trifluoro-1H-indole-2-carbonyl)-4H,5H,6H,7H-pyrazolo[1,5-a]pyrazine-3-amido]cyclopropyl}benzoic acid], the IC50 in assay [1] (setting [3]) was < 5 µM. Also, the EC50 in the assay on HBV (HepAD38 cells) is < 1 µM.

`CN1C(=O)c2c3c(nn2CC12CC2)CCN(C(=O)c1cc2cc(F)ccc2[nH]1)C3` [Example 79, 12′-(5-fluoro-1H-indole-2-carbonyl)-4′-methyl-4′,7′, 8′,12′-tetraazaspiro[cyclopropane-1,5′-tricyclo[7.4.0.0^2,7]tridecane]-1′,8′-dien-3′-one]: in assay [1] (setting [2]), the IC50 was < 5 µM. In addition, the EC50 in the assay with HBV (HepAD38 cells) is < 1 µM.

On to `CN(C(=O)c1cnn2c1CN(C(=O)c1cc3c(Cl)c(F)ccc3[nH]1)CC2)C1(c2ccc(C(=O)O)cc2)CC1` [Example 80, 4-{1-[N-methyl-5-(4-chloro-5-fluoro-1H-indole-2-carbonyl)-4H,5H,6H,7H-pyrazolo[1,5-a]pyrazine-3-amido]cyclopropyl}benzoic acid], for which the IC50 in assay [1] (setting [3]) is < 5 µM. Further, the EC50 in the assay on HBV (HepAD38 cells) is < 1 µM.

As for `CN(C(=O)c1cnn2c1CN(C(=O)c1cc3c(Cl)cc(F)cc3[nH]1)CC2)C1(c2ccc(C(=O)O)cc2)CC1` [Example 81, 4-{1-[N-methyl-5-(4-chloro-6-fluoro-1H-indole-2-carbonyl)-4H,5H,6H,7H-pyrazolo[1,5-a]pyrazine-3-amido]cyclopropyl}benzoic acid], the IC50 in assay [1] (setting [3]) was < 5 µM. In addition, the EC50 in the assay with HBV (HepAD38 cells) is < 1 µM.

With `Cc1cccc2[nH]c(C(=O)N3CCn4ncc(C(=O)N(C)C5(c6ccc(C(=O)O)cc6)CC5)c4C3)cc12` [Example 82, 4-{1-[N-methyl-5-(4-methyl-1H-indole-2-carbonyl)-4H,5H,6H,7H-pyrazolo[1,5-a]pyrazine-3-amido]cyclopropyl}benzoic acid], the IC50 in assay [1] (setting [2]) was < 5 µM. The EC50 in the assay with HBV (HepAD38 cells) was < 1 µM.

As for `CCc1cccc2[nH]c(C(=O)N3CCn4ncc(C(=O)N(C)C5(c6ccc(C(=O)O)cc6)CC5)c4C3)cc12` [Example 83, 4-{1-[N-methyl-5-(4-ethyl-1H-indole-2-carbonyl)-4H,5H,6H,7H-pyrazolo[1,5-a]pyrazine-3-amido]cyclopropyl}benzoic acid], the IC50 in assay [1] (setting [3]) was < 5 µM. In the assay on HBV (HepAD38 cells), the EC50 is < 1 µM.

As for `CN(C(=O)c1cnn2c1CN(C(=O)c1cc3ccccc3[nH]1)CC2)C1(c2cc(C(=O)O)on2)CC1` [Example 84], the IC50 in assay [1] (setting [2]) was < 5 µM. In the assay on HBV (HepAD38 cells), the EC50 is < 1 µM.

In the case of `CN1C(=O)c2c3c(nn2CC12CC2)CCN(C(=O)c1cc2c(F)c(F)ccc2[nH]1)C3` [Example 85, 12′-(4,5-difluoro-1H-indole-2-carbonyl)-4′-methyl-4′,7′,8′,12′-tetraazaspiro[cyclopropane-1,5′-tricyclo[7.4.0.0^2,7]tridecane]-1′,8′-dien-3′-one], in assay [1] (setting [3]), the IC50 is < 5 µM. In the assay on HBV (HepAD38 cells), the EC50 is < 1 µM.

As to `CCN1C(=O)c2c3c(nn2CCC12CC2)CCN(C(=O)c1cc2ccccc2[nH]1)C3` [Example 86, 13′-ethyl-4′-(1H-indole-2-carbonyl)-4′,8′,9′,13′-tetraazaspiro[cyclopropane-1,12′-tricyclo[7.5.0.0^2,7]tetradecane]-1′,7′-dien-14′-one], in assay [1] (setting [3]), the IC50 is < 5 µM. Further, in the assay with HBV (HepAD38 cells), the EC50 was < 1 µM.

Turning to `CN1C(=O)c2c3c(nn2CC12CC2)CCN(C(=O)c1cc2c(Cl)c(F)ccc2[nH]1)C3` [Example 87, 12′-(4-chloro-5-fluoro-1H-indole-2-carbonyl)-4′-methyl-4′,7′,8′,12′-tetraazaspiro[cyclopropane-1,5′-tricyclo[7.4.0.0^2,7]tridecane]-1′,8′-dien-3′-one], in assay [1] (setting [2]), the IC50 is < 5 µM. Besides, in the assay on HBV (HepAD38 cells), the EC50 is < 1 µM.

As to `Cc1cc(F)cc2[nH]c(C(=O)N3CCc4nn5c(c4C3)C(=O)N(C)C3(CC3)C5)cc12` [Example 88, 12′-(6-fluoro-4-methyl-1H-indole-2-carbonyl)-4′-methyl-4′,7′,8′,12′-tetraazaspiro[cyclopropane-1,5′-tricyclo[7.4.0.0^2,7]tridecane]-1′,8′-dien-3′-one], the IC50 in assay [1] (setting [3]) is < 5 µM. Besides, in the assay on HBV (HepAD38 cells), the EC50 was < 1 µM.

As for `O=C(c1cc2ccccc2[nH]1)N1CCc2nn3c(c2C1)C(=O)N(CCO)C1(CC3)CC1` [Example 89, 13′-(2-hydroxyethyl)-4′-(1H-indole-2-carbonyl)-4′, 8′,9′,13′-tetraazaspiro[cyclopropane-1,12′-tricyclo[7.5.0.0^2,7]tetradecane]-1′,7′-dien-14′-one], the IC50 in assay [1] (setting [3]) is < 5 µM. The EC50 in the assay with HBV (HepAD38 cells) is < 1 µM.

For the compound `O=C(c1cc2ccccc2[nH]1)N1CCc2nn3c(c2C1)C(=O)N(CCOCc1ccccc1)C1(CC3)CC1` [Example 90, 13′-[2-(benzyloxy)ethyl]-4′-(1H-indole-2-carbonyl)-4′,8′,9′,13′-tetraazaspiro[cyclopropane-1,12′-tricyclo[7.5.0.0^2,7]tetradecane]-1′,7′-dien-14′-one], the IC50 in assay [1] (setting [3]) was < 5 µM. Besides, the EC50 in the assay with HBV (HepAD38 cells) is < 1 µM.

For `O=C(c1cc2ccccc2[nH]1)N1CCc2onc(C(=O)N3CCC(O)CC34CC4)c2C1` (stereo not drawn) [Example 95, 4-[5-(1H-indole-2-carbonyl)-4H,5H,6H,7H-[1,2]oxazolo[4,5-c]pyridine-3-carbonyl]-4-azaspiro[2.5]octan-7-ol], in assay [1] (setting [3]), the IC50 is < 5 µM. Moreover, the EC50 in the assay with HBV (HepAD38 cells) is < 1 µM.

With `O=C(c1cc2ccccc2[nH]1)N1CCc2onc(C(=O)N3CCCOCC34CC4)c2C1` [Example 96, 4-[5-(1H-indole-2-carbonyl)-4H,5H,6H,7H-[1,2]oxazolo[4,5-c]pyridine-3-carbonyl]-8-oxa-4-azaspiro[2.6]nonane], the IC50 in assay [1] (setting [3]) was < 5 µM. Besides, the EC50 in the assay on HBV (HepAD38 cells) was < 1 µM.

In the case of `CN(C(=O)c1noc2c1CN(C(=O)c1cc3ccccc3[nH]1)CC2)C1(c2ccc(C(=O)O)cc2)CC1` [Example 97, 4-{1-[N-methyl-5-(1H-indole-2-carbonyl)-4H,5H,6H,7H-[1,2]oxazolo[4,5-c]pyridine-3-amido]cyclopropyl}benzoic acid], the IC50 in assay [1] (setting [3]) was < 5 µM. Also, in the assay with HBV (HepAD38 cells), the EC50 was < 1 µM.

On to `CN(C(=O)c1noc2c1CN(C(=O)c1cc3ccccc3[nH]1)CC2)C1(c2ncc(C(=O)O)cn2)CC1` [Example 98, 2-{1-[N-methyl-5-(1H-indole-2-carbonyl)-4H,5H,6H,7H-[1,2]oxazolo[4,5-c]pyridine-3-amido]cyclopropyl}pyrimidine-5-carboxylic acid], for which the IC50 in assay [1] (setting [3]) is < 5 µM. The EC50 with HBV (HepAD38 cells) lay in the range of 1 to 10 µM.

As to `C[C@@H](NC(=O)c1noc2c1CN(C(=O)c1cc3cc(F)c(Cl)cc3[nH]1)CC2)C(F)(F)F` [Example 103, 5-(6-chloro-5-fluoro-1H-indole-2-carbonyl)-N-[(2R)-1,1,1-trifluoropropan-2-yl]-4H,5H,6H,7H-[1,2]oxazolo[4,5-c]pyridine-3-carboxamide], the IC50 in assay [1] (setting [3]) is < 5 µM. The EC50 in the assay on HBV (HepAD38 cells) was < 1 µM.

Regarding `C[C@@H](NC(=O)c1noc2c1CN(C(=O)c1cc3c(Cl)cccc3[nH]1)CC2)C(F)(F)F` [Example 104, 5-(4-chloro-1H-indole-2-carbonyl)-N-[(2R)-1,1,1-trifluoropropan-2-yl]-4H,5H,6H,7H-[1,2]oxazolo[4,5-c]pyridine-3-carboxamide], the IC50 in assay [1] (setting [3]) is < 5 µM. Further, the EC50 in the assay on HBV (HepAD38 cells) is < 1 µM.
